Data: US20250230226A1, “PLXDC1/PLXDC2 ACTIVATORS AND THEIR USE IN THE TREATMENT OF BLOOD VESSEL DISORDERS” (THE REGENTS OF THE UNIVERSITY OF CALIFORNIA, priority 2019, published 2025)

Experiments:
[1] = tested on: CT26.CL25 colon cancer tumor endothelial cells; test: Colon CT26 ex vivo model of tumor angiogenesis; assay type: cell-based, mouse
Summary of the method: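 Cell death was read by FDA (live, green) and PI (dead, red) fluorescence imaging, e.g. 48 h after treatment. Treatment began once endothelial cells had grown out of Matrigel-embedded CT26 colon tumor fragments, typically after 7 days of culture in endothelial growth medium at 37 °C.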

[2] = tested on: LL/2 lung cancer tumor endothelial cells; test: Lung LL2 ex vivo model of tumor angiogenesis; assay type: cell-based, mouse; settings: for 48 hrs (morphology observations): LL/2 tumor endothelial cells; for cytotoxicity at 40 µM / cytotoxicity at 20 µM: Mus musculus, Endothelial cell, 48 h, read-out: Cell death; for Cell death: drug treatment for two days, ratio of red area to total endothelial cell area
Summary of the method: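 Live/dead imaging with FDA and PI, taken e.g. 48 h post-drug under fixed channel settings, measures treatment effects on endothelial cells sprouting from Lewis lung tumor explants. Explants were seeded in Matrigel drops and grown ~4 days in endothelial growth medium, 37 °C, 5% CO2, before dosing.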

PLXDC1 = target: T1, PLXDC1 (Homo sapiens, UniProt Q8IUK5); test: Gfi1b promotor luciferase receptor activation assay, PLXDC1-expressing cells (FIG. 18A, 19); assay type: cell-based; settings: compound treatments 1 day; basal activity defined as 1
T1 construct: expressed in transfected cells
T1 sequence (Q8IUK5 19-500): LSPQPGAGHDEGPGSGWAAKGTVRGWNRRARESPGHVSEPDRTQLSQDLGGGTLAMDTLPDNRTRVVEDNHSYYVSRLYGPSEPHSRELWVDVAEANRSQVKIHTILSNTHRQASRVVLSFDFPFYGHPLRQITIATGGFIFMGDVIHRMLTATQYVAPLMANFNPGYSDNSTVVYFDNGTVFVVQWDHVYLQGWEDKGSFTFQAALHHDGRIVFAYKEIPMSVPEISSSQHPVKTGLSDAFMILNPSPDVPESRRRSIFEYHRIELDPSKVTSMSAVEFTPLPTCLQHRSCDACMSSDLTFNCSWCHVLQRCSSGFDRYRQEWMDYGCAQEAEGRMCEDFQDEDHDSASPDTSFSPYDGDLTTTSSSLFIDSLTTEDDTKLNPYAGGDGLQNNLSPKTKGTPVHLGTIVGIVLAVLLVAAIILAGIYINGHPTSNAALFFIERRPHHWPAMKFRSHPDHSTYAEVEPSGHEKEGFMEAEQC
Text: FIG. 18A-B show activation of PLXDC1 and PLXDC2 by small molecules. […] All compound treatments were done for 1 day. Basal promotor activity of the PLXDC1-expressing cells is defined as 1.
Basal promotor activity of the PLXDC1-expressing cells is defined as 1. The basal activity of PLXDC1-expressing cells (Control) are higher than cells without PLXDC1, consistent promotor activation by the ectopic expression of the receptor without ligands.
By linking its promotor to a luciferase reporter gene, this example developed a PLXDC1 receptor activation assay.

[3] = Mus musculus, Endothelial cell, 48 h, read-out: Cell death

| SMILES | 48 hrs (morphology observations after 48 hours) ([1]; Conc. 40 μm) | cytotoxicity at 40 µM [1, 3] [%] | 48 hrs (morphology observations) ([2]; 40 μm) | 48 hrs (morphology observations after 48 hours) ([1]; Conc. 10 μm) | cytotoxicity at 10 µM [1, 3] [%] | 48 hrs (morphology observations) ([2]; 20 μm) | other results |
| --- | --- | --- | --- | --- | --- | --- | --- |
| CCCCOc1ccc(S(=O)(=O)c2cnc3ccc(C(=O)OCC)cc3c2N2CCC(N3CCN(CCO)CC3)CC2)cc1 [Compound 214] | **** (100% of endothelial cells vesicularize in cell shape and look flattened in morphology (indicating disintegration of the cell body)) | 100 | **** (100% of endothelial cells vesicularize in cell shape and look flattened in morphology (indicating disintegration of the cell body)) | – | – | – | cytotoxicity at 40 µM [2]: 100% |
| CCCCOc1ccc(S(=O)(=O)c2cnc3ccc(C(=O)OCC)cc3c2N2CCC(N3CCC(c4ccccc4)CC3)CC2)cc1 [Compound 215] | 0 | 20 | 0 | – | – | – | cytotoxicity at 40 µM [2]: 30% |
| CCCCOc1ccc(S(=O)(=O)c2cnc3ccc(C(=O)OCC)cc3c2N2CCC(N3CCC(N4CCCCC4)CC3)CC2)cc1 [Compound 216] | **** (100% of endothelial cells vesicularize in cell shape and look flattened in morphology (indicating disintegration of the cell body)) | 100 | **** (100% of endothelial cells vesicularize in cell shape and look flattened in morphology (indicating disintegration of the cell body)) | – | – | – | cytotoxicity at 40 µM [2]: 100% |
| CCCCCCCOc1ccc(S(=O)(=O)c2cnc3ccc(SC)cc3c2N2CCCN(C)CC2)cc1 [Compound 218] | *** (100% of endothelial cells vesicularize in cell shape) | 90 | **** (100% of endothelial cells vesicularize in cell shape and look flattened in morphology (indicating disintegration of the cell body)) | – | – | – | Cell death ([2]; 40 μm): 100% |
| CCCCCCCOc1ccc(S(=O)(=O)c2cnc3ccc(SC)cc3c2N2CCC(N3CCCCC3)CC2)cc1 [Compound 219] | *** (100% of endothelial cells vesicularize in cell shape) | 90 | **** (100% of endothelial cells vesicularize in cell shape and look flattened in morphology (indicating disintegration of the cell body)) | – | – | – | Cell death ([2]; 40 μm): 60% |
| CCCCCCCOc1ccc(S(=O)(=O)c2cnc3ccc([S+](C)[O-])cc3c2N2CCCN(C)CC2)cc1 (stereo not drawn) [Compound 220] | **** (100% of endothelial cells vesicularize in cell shape and look flattened in morphology (indicating disintegration of the cell body)) | 100 | **** (100% of endothelial cells vesicularize in cell shape and look flattened in morphology (indicating disintegration of the cell body)) | – | – | – | cytotoxicity at 40 µM [2]: 100% |
| CCCCCCCOc1ccc(S(=O)(=O)c2cnc3ccc([S+](C)[O-])cc3c2N2CCC(N3CCCCC3)CC2)cc1 (stereo not drawn) [Compound 221] | **** (100% of endothelial cells vesicularize in cell shape and look flattened in morphology (indicating disintegration of the cell body)) | 100 | **** (100% of endothelial cells vesicularize in cell shape and look flattened in morphology (indicating disintegration of the cell body)) | – | – | – | cytotoxicity at 40 µM [2]: 100% |
| CCCCOc1ccc(S(=O)(=O)c2cnc3ccc([S+](C)[O-])cc3c2N2CCC(N3CCC(O)(c4ccccc4)CC3)CC2)cc1 (stereo not drawn) [Compound 238] | – | – | *** (more than 50% but less than 100% of endothelial cells vesicularize in cell shape) | 0 | 10 | – | – |
| CCCCOc1ccc(S(=O)(=O)c2cnc3ccc([S+](C)[O-])cc3c2N2CCC(N3CCCN(C)CC3)CC2)cc1 (stereo not drawn) [Compound 241] | – | – | – | 0 | 0 | – | Cell death ([2]; 40 μm): 40% |
| CCCCCCCOc1ccc(S(=O)(=O)c2cnc3ccc([S+](C)[O-])cc3c2N2CCC(N3CCN(C)CC3)CC2)cc1 (stereo not drawn) [Compound 253] | – | – | – | *** (100% of endothelial cells vesicularize in cell shape) | 80 | **** (100% of endothelial cells vesicularize in cell shape and look flattened in morphology (indicating disintegration of the cell body)) | Cell death ([2]; 20 μm): 100% |
| CCCCCCCOc1ccc(S(=O)(=O)c2cnc3ccc([S+](C)[O-])cc3c2N2CCC(N3CCCC(O)C3)CC2)cc1 (stereo not drawn) [Compound 254] | – | – | – | ** (more than 50% but less than 100% of endothelial cells vesicularize in cell shape) | 40 | *** (more than 50% but less than 100% of endothelial cells vesicularize in cell shape) | Cell death ([2]; 20 μm): 100% |
| CCCCCCCOc1ccc(S(=O)(=O)c2cnc3ccc([S+](C)[O-])cc3c2N2CCCN(CCN3CCCCC3)CC2)cc1 (stereo not drawn) [Compound 255] | – | – | – | 0 | 0 | * (50% or less of cells vesicularize in cell shape) | Cell death ([2]; 20 μm): 10% |
| CCCCCCCOc1ccc(S(=O)(=O)c2cnc3ccc([S+](C)[O-])cc3c2N2CCC(N3CCCN(C)CC3)CC2)cc1 (stereo not drawn) [Compound 256] | – | – | – | *** (100% of endothelial cells vesicularize in cell shape) | 90 | **** (100% of endothelial cells vesicularize in cell shape and look flattened in morphology (indicating disintegration of the cell body)) | Cell death ([2]; 20 μm): 100% |
| CCCCCCCOc1ccc(S(=O)(=O)c2cnc3ccc([S+](C)[O-])cc3c2N2CCC(N3CCN(CCO)CC3)CC2)cc1 (stereo not drawn) [Compound 257] | – | – | – | **** (100% of endothelial cells vesicularize in cell shape and look flattened in morphology (indicating disintegration of the cell body)) | 100 | **** (100% of endothelial cells vesicularize in cell shape and look flattened in morphology (indicating disintegration of the cell body)) | cytotoxicity at 20 µM [2]: 100% |
| CCCCCCCOc1ccc(S(=O)(=O)c2cnc3ccc([S+](C)[O-])cc3c2N2CCC(N3CCC(N4CCCCC4)CC3)CC2)cc1 (stereo not drawn) [Compound 258] | – | – | – | *** (100% of endothelial cells vesicularize in cell shape) | 100 | **** (100% of endothelial cells vesicularize in cell shape and look flattened in morphology (indicating disintegration of the cell body)) | cytotoxicity at 20 µM [2]: 100% |
| CCCCCCCOc1ccc(S(=O)(=O)c2cnc3ccc([S+](C)[O-])cc3c2N2CCN(C)CC2)cc1 (stereo not drawn) [Compound 259] | – | – | – | – | – | *** (more than 50% but less than 100% of endothelial cells vesicularize in cell shape) | 48 hrs (morphology observations after 48 hours) ([1]; Conc. 20 μm): *** (100% of endothelial cells vesicularize in cell shape); cytotoxicity at 20 µM [1, 3]: 100%; Cell death ([2]; 20 μm): 95% |
| O=c1[nH]cc(F)c(=O)[nH]1 [Fluorouracil, 5-fluorouracil, reference compound] | – | – | – | – | – | – | Gfi1b promotor activity in PLXDC1-expressing cells (PLXDC1): does not activate this promoter |
